“Also recorded” adds a separate entry of the source. Where two headings read alike, the source gives them in different places.

One test relates to EAE. The note with it: in vivo; cited from earlier work.
In a further test the test system is MMP-9. The experiment in a line: MMP enzyme activity in gelatin zymography, test agent in wash and reaction buffer. The test is classed as biochemical, Baby Hamster Kidney (BHK) cells and human T lymphocytes. The conditions noted are these: agent in incubation buffers during zymogram development; MMP-9 from BHK cells or T lymphocytes. The text has this: The analysis of cell conditioned medium in zymography is a reflection of the amount of MMPs that was produced by the particular culture. […] An inhibitor of MMP activity prevents gelatin degradation by gelatinases and the resultant size of the band of gelatinases would be smaller as compared to that obtained in the absence of inhibitors.

Test [1] deals with MMP-9 production by T lymphocytes. The experiment in a line: MMP-9 production by anti-CD3 activated T lymphocytes (zymography of conditioned medium). The format is cell-based, human. The note with it: 25 μg/ml, for 1, 2 or 3 d. The protocol:
(§1) Heparinized blood was collected from normal volunteers, and subjected to Ficoll-Hypaque (Pharmacia Biotech, Mississauga, Ontario) centrifugation to obtain peripheral blood mononuclear cells (PEMNCs) as described previously (15). After two washes, cells were suspended at a density of 1–2 million/ml in horizontal T-25 flasks (Nunc, Becton Dickinson, Mississauga, Ontario) in the serum free medium, AIM-V (GIBCO/BRL), to which 1 ng/ml of an anti-CD3 antibody (OKT3, compliments of Jack Antel, Montreal, Canada) was added. Three hours after the anti-CD3 addition, the T-25 flasks were stood upright from their horizontal position in order to […] monocytes that had adhered. Floating cells, which were mostly lymphocytes, were left for a period of 72 hours at 37° C. […] Henceforth, given that the majority of cells in the MNC population are T lymphocytes, these will be referred to as T lymphocytes.
(§2) Cells were left for 69 h at 37° C., then collected, counted and resuspended in fresh AIM-V at density of 500,000 cells per ml. […] Thereafter, 500 μl (250,000 cells) of the suspension was taken for migration assays described below. Alternatively, 100 μl (50,000 cells) of cell suspension was added to each individual well of a 96-well plate already containing microglia or U937 monocytoid cells (see below).

Test [2] has as its system T lymphocytes. Put plainly: Migration assay across fibronectin-coated Boyden chamber. The test is classed as cell-based, human. As for the experimental part: as §2
To address the migration capacity of T lymphocytes, 2×10^5 T lymphocytes in 500 μl of 2.5% fetal calf serum (FCS) containing AIM-V were seeded into the top compartment of a Boyden chamber (Collaborative Biomedical Products, Bedford, Md.). This chamber consists of two compartments separated by a polycarbonate membrane filter (9 mm in diameter, with 3 μm pores) precoated on its upper surface with fibronectin. Fibronectin was employed to simulate the basal lamina.
The bottom compartment of the migration chamber contained 10% FCS-supplemented AIM-V; the higher concentration of FCS in the bottom chamber served as a directional gradient (77). After 5 h at 37° C., the content of the lower chamber was collected, and the number of migrated T lymphocytes was counted with the Coulter Counter Z1.

Test [3] has as its system T lymphocyte - U937 co-culture. The note with it: pretreatment of the PMA/IFNγ-treated U937 cells instead of T lymphocytes. The protocol: as §2
A human promonocytoid cell line, U937, was also employed. Members of this cell line become microglia-like, as assessed by morphology and expression of cell surface molecules, when treated sequentially with 50 ng/ml of a protein kinase C activator, phorbol-12-myristate-13-acetate (PMA) (time 0–48) and 100 U/ml interferon-γ (IFNγ) (from 48–72 h).
Cells were used 1–3 days after the IFNγ treatment. As with microglia, 50,000 T lymphocytes in AIM-V was added to individual wells of a 96-well plate already containing 25,000 PMA/IFNγ-treated U937 cells, and conditioned medium was collected after 24 h of co-cultures.
(§3) Cytokine protein levels in the conditioned medium of microglia-T lymphocyte co-cultures were measured using enzyme-linked immunoabsorbent assay (ELISA) kits bought from BioSource International (Montreal, Canada).

The subject of test [4] is T lymphocyte - adult human microglia co-culture. The conditions noted are these: added at the time of co-culture instead of pretreatment. As for the experimental part:
as §2
Adult human microglia were isolated from the resected brain tissue of patients undergoing surgical resection to treat intractable epilepsy. […] Cells were used for interactions with T lymphocytes in a manner identical to that described for their fetal counter parts.
as §3

For test [5], the system named is T lymphocytes. The note with it: for total number of cells after 72 h: control 24±2. The protocol: as §1, §2
The test system of test [6] is CXCR3 and CXCR4 on U937 cells. The note with it: 25 μg/ml, 1 or 3 days. An excerpt:
Chemokine and chemokine receptor expression are currently recognized to be important mechanisms that regulate the influx of leukocytes into the CNS. Notable is the up-regulation of the chemokine IP-10 and its receptor CXCR3 in the lesions of multiple sclerosis patients (74).

Test [7] has as its system MMP-9 production by monocytes. The note with it: after 1 day of treatment.
Description: To produce monocyte-enriched cultures, 2×10^5 PBMC were suspended in 100 μl of AIM-V medium and placed into each well of a 96-well plate. One hour after, floating cells were removed to leave behind adherent monocytes. Fresh 100 μl of AIM-V was added per well and cultures were kept at 37° C.
Supernatant was collected, mixed in a 3.1 ratio (v/v) with 4× gel-loading SDS buffer, and used in zymographic assays. Similarly, for monocytes in wells of 96-well plates, conditioned medium was collected, microfuged, and mixed with 4× gel-loading SDS buffer.
Zymography is essentially SDS-PAGE except that gelatin is also added to the gel (77, 82). After proteins were resolved based on molecular weight in SDS-PAGE, the gel was washed in a Triton X-100 buffer in order to remove SDS which thus allows protein renaturation. In a calcium-containing “reaction buffer” (77), gelatinases (MMP-2 and -9) degraded gelatin in their immediate vicinity (other members of MMPs would also be detected if present in high amounts). Following staining in Coommasie blue, which binds all proteins, and destaining , areas containing gelatinases appeared as clear bands against a dark background, since the gelatin in its immediate vicinity has been degraded. The size of the MMP bands was a reflection of the amount of MMP that was produced by cells, and this was documented by NIH image analysis software.
Another test deals with experimental GVHD. The conditions noted are these: higher doses and/or more frequent administration; mice; cited from earlier work.
The next test concerns T-cell responses to MBP. The conditions noted are these: dose-dependent; cited from earlier work.
Another test deals with MHC class II molecules. The conditions noted are these: irrespective of MHC restriction, dose-dependent; cited from earlier work.
The subject of test [8] is lymphocytes from relapsing-remitting multiple sclerosis patients. The conditions noted are these: patients on Copolymer 1 compared to untreated multiple sclerosis patients; cited from earlier work.

Regarding `C=CC[C@H](C(=O)NO)[C@@H](CC(C)C)C(=O)N[C@@H](Cc1ccccc1)C(=O)NC` [BB-1101], the “incidence and severity of EAE” value in the test with EAE is listed as “alleviate”.

In the case of `CNC(=O)[C@H](Cc1c[nH]c2ccccc12)NC(=O)[C@@H](CC(=O)NO)CC(C)C` [GM6001], the “incidence and severity of EAE” value with EAE is “alleviate”.

Consider `CNC(=O)[C@@H](NC(=O)[C@@H](CC(=O)NO)CC(C)C)C(C)(C)C` [Ro31-9790], for which the “incidence and severity of EAE” value in the test on EAE is reported as “alleviate”.

On to `c1cnc2c(c1)ccc1cccnc12` [phenanthroline], for which the “inhibition of MMP-9 enzymatic activity (size of gelatinase band in zymogram)” value (from here on “inhibition of MMP-9 enzymatic activity”) in the test on MMP-9 is “inhibit MMP activity”.

Take “L-glutamic acid polymer with L-alanine, L-lysine and L-tyrosine, acetate (salt) [Copolymer 1]”: the “production of MMP-9 by T lymphocytes compared to controls” value in test [1] was “did not affect”. In the test with MMP-9, the “inhibition of MMP-9 enzymatic activity” value was “dose-dependently reduced; also recorded: inhibits”. Also, the “migration rate of pre-treated T lymphocytes versus controls” value in the test with T lymphocytes [2] (10 ng/ml MCP-1 or MCP-3 in bottom chamber as chemotactic signal) was “did not differ”. Further, the “migration of T lymphocytes across fibronectin barrier compared to controls” value with T lymphocytes [2] (25 μg/ml pretreatment for 1, 2 or 3 days) is given as “did not inhibit; also recorded: did not affect”. For the same compound, the “transmigration of activated T lymphocytes” value in the test with T lymphocytes [2] (3-day pretreatment, various concentrations 1 to 50 μg/ml) is recorded as “did not affect”. Also, in test [3], the “cytokine production in subsequent T lymphocyte - U937 interactions” value is given as “did not influence”. Further, in test [4], the “reducing effect on cytokine production” value is reported as “does not occur”. The “number or size of T lymphocyte aggregates after anti-CD3 treatment (proliferation)” value in the test on T lymphocytes [5] is given as “does not decrease”. Also, the “total number of cells after 72 h” value in the test on T lymphocytes [5] (5 μg/ml) was 26±1 ×10^3; with T lymphocytes [5] (25 μg/ml), 26±2 ×10^3; with T lymphocytes [5] (50 μg/ml) it was 22±1 ×10^3. The “CXCR4 expression on U937 cells” value in [6] is “does not affect”. Further, in test [7], the “monocyte production of MMP-9” value is “unaffected”. Besides, the “experimental GVHD” value with experimental GVHD is “prevent”. For the same compound, the “in vitro T-cell responses to MBP” value in the test on T-cell responses to MBP is given as “inhibited”. Also, the “binding to antigen presenting cells / MHC class II molecules” value in the test with MHC class II molecules was “binds”. Moreover, the “capacity of lymphocytes to transmigrate across a fibronectin barrier” value in test [8] is reported as “significantly reduced”.

As to “TIMP-1: positive control shown to inhibit MMP activity in the zymography assay”, the “inhibition of MMP-9 enzymatic activity” value with MMP-9 is given as “inhibit MMP activity”.
